This note sets out measurements from ChEMBL document CHEMBL6153063 (Eur J Med Chem, 2025).

Calls of active or inactive are those of the source. No cut-off for these calls is given here. Where only a bound is given, the exact number is not on record here.

Assay [1] has as its system MV4-11. The assay is described as follows: Inhibition of cell viability in human MV4-11 cells incubated for 48 hrs by Alamar blue assay. The assay is classed as functional, cell-based. The note with it: MV4-11, 48 h. A general note: Alamar Blue is a resazurin reagent that responds to reducing activity.
Assay [2] can be described thus: Inhibition of cell viability in human Venetoclax-resistant MV4-11 cells overexpressing Bcl-2 incubated for 48 hrs by Alamar blue assay. The assay is classed as functional, cell-based. The conditions noted are these: Venetoclax-resistant MV4-11, 48 h.
Assay [3] relates to MOLM-14. The assay is described as follows: Inhibition of cell viability in human MOLM-14 cells incubated for 48 hrs by Alamar blue assay. The note with it: MOLM-14, 48 h. The assay is classed as functional, cell-based.
The nature of assay [4]: Inhibition of cell viability in human Gilteritinib-resistant MOLM-14 cells expressing FLT3 F691L mutant incubated for 48 hrs by Alamar blue assay. The assay is classed as functional, cell-based. The conditions noted are these: Gilteritinib-resistant MOLM-14, 48 h.
The target in assay [5] is Apoptosis regulator Bcl-2 (Homo sapiens, UniProt P10415). Kind of assay: Binding affinity to Bcl-2 (unknown origin) assessed as dissociation constant incubated for 1 hr by KINOMEscan assay.
Assay [6] addresses T1, Receptor-type tyrosine-protein kinase FLT3 (Homo sapiens, UniProt P36888).
T1 sequence (P36888 whole entry): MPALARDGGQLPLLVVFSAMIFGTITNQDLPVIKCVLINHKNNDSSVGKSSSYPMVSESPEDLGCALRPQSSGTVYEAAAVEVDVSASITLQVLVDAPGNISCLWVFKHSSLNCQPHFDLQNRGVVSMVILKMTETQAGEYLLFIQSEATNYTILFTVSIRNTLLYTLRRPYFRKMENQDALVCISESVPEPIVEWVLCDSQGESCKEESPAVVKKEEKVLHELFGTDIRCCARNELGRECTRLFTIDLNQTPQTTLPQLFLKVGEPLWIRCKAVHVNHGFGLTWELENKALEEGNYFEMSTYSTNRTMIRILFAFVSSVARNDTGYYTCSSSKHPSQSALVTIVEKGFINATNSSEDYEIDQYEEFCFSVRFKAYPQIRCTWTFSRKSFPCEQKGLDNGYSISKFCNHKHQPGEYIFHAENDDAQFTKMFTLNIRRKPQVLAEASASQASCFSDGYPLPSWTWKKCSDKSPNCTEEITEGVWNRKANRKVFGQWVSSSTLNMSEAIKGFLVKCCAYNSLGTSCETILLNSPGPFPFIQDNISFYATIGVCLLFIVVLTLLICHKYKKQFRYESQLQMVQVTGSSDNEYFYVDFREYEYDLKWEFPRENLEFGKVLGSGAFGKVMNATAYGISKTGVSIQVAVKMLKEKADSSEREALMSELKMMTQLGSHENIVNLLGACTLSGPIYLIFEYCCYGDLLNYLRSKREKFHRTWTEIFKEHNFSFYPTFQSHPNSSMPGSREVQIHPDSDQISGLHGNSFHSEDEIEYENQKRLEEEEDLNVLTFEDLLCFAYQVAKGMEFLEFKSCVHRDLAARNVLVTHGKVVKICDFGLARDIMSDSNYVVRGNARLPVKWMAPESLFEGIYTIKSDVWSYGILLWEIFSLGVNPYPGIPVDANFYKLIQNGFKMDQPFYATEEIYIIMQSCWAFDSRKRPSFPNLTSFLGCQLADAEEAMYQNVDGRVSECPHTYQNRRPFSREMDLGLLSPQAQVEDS
Kind of assay: Binding affinity to FLT3 (unknown origin) assessed as dissociation constant incubated for 1 hr by KINOMEscan assay.

The test system of assay [7] is MV4-11. Kind of assay: Induction of apoptosis in human MV4-11 cells assessed as viable cells at 200 nM incubated for 48 hrs by Annexin V/7AAD staining based flow cytometry (reference value: 95.6 %). The assay is classed as functional. The conditions noted are these: read-out: Activity.
For assay [8], the system named is MV4-11. The assay is described as follows: Induction of apoptosis in human MV4-11 cells assessed as early apoptotic cells at 200 nM incubated for 48 hrs by Annexin V/7AAD staining based flow cytometry (reference value: 2.3 %). The assay is classed as functional. Background: In flow cytometry, cells or beads pass a laser one at a time.
The test system of assay [9] is MV4-11. The assay is described as follows: Induction of apoptosis in human MV4-11 cells assessed as late apoptotic cells at 200 nM incubated for 48 hrs by Annexin V/7AAD staining based flow cytometry (reference value: 1.7 %). Format: functional.
For assay [10], the system named is Venetoclax-resistant MV4-11. Kind of assay: Induction of apoptosis in human Venetoclax-resistant MV4-11 cells overexpressing Bcl-2 upto 200 nM incubated for 48 hrs by Annexin V/7AAD staining based flow cytometry. The assay is classed as functional, cell-based.
The subject of assay [11] is Gilteritinib-resistant MOLM-14. Kind of assay: Induction of apoptosis in human Gilteritinib-resistant MOLM-14 cells expressing FLT3 F691L mutant upto 200 nM incubated for 48 hrs by Annexin V/7AAD staining based flow cytometry. Format: functional, cell-based.
In assay [12] the test system is MV4-11. Kind of assay: Inhibition of cell viability in human MV4-11 cells incubated for 48 hrs in presence of VEN by Alamar blue assay. The note with it: MV4-11, 48 h.
The test system of assay [13] is MOLM-14. Kind of assay: Inhibition of cell viability in human MOLM-14 cells incubated for 48 hrs in presence of VEN by Alamar blue assay. The note with it: MOLM-14, 48 h.
Assay [14] deals with MV4-11. Kind of assay: Induction of apoptosis in human MV4-11 cells assessed as viable cells at 200 nM incubated for 48 hrs in presence of VEN by Annexin V/7AAD staining based flow cytometry (reference value: 95.6 %). Format: functional. The conditions noted are these: read-out: Activity.
Assay [15] deals with MV4-11. Kind of assay: Induction of apoptosis in human MV4-11 cells assessed as early apoptotic cells at 200 nM incubated for 48 hrs in presence of VEN by Annexin V/7AAD staining based flow cytometry (reference value: 2.3 %). The assay is classed as functional.
For assay [16], the system named is MV4-11. Kind of assay: Induction of apoptosis in human MV4-11 cells assessed as late apoptotic cells at 200 nM incubated for 48 hrs in presence of VEN by Annexin V/7AAD staining based flow cytometry (reference value: 1.7 %). The assay is classed as functional.
A short description of assay [17]: cells. The conditions noted are these: Homo sapiens, Venetoclax-resistant MV4-11, 48 h.
The nature of assay [18]: cells. The conditions noted are these: Homo sapiens, Gilteritinib-resistant MOLM-14, 48 h.
Assay [19] deals with MV4-11. Kind of assay: Induction of apoptosis in human MV4-11 cells assessed as viable cells at 200 nM incubated for 48 hrs in presence of GIL by Annexin V/7AAD staining based flow cytometry (reference value: 95.6 %). The assay is classed as functional. The conditions noted are these: read-out: Activity.
For assay [20], the system named is MV4-11. The assay is described as follows: Inhibition of cell viability in human MV4-11 cells incubated for 48 hrs in presence of GIL by Alamar blue assay. The conditions noted are these: MV4-11, 48 h.
Assay [21] in a line: Inhibition of cell viability in human Venetoclax-resistant MV4-11 cells overexpressing Bcl-2 incubated for 48 hrs in presence of GIL by Alamar blue assay. The assay is classed as functional, cell-based. The note with it: Venetoclax-resistant MV4-11, 48 h.
In assay [22] the test system is MOLM-14. The assay is described as follows: Inhibition of cell viability in human MOLM-14 cells incubated for 48 hrs in presence of GIL by Alamar blue assay. Format: functional, cell-based. The conditions noted are these: MOLM-14, 48 h.
Assay [23] is described as follows: Inhibition of cell viability in human Gilteritinib-resistant MOLM-14 cells expressing FLT3 F691L mutant incubated for 48 hrs in presence of GIL by Alamar blue assay. Format: functional, cell-based. The conditions noted are these: Gilteritinib-resistant MOLM-14, 48 h.
The subject of assay [24] is MV4-11. The assay is described as follows: Induction of apoptosis in human MV4-11 cells assessed as early apoptotic cells at 200 nM incubated for 48 hrs in presence of GIL by Annexin V/7AAD staining based flow cytometry (reference value: 2.3 %). The assay is classed as functional.
Assay [25] concerns MV4-11. The assay is described as follows: Induction of apoptosis in human MV4-11 cells assessed as late apoptotic cells at 200 nM incubated for 48 hrs in presence of GIL by Annexin V/7AAD staining based flow cytometry (reference value: 1.7 %). The assay is classed as functional.

Chain of Apoptosis regulator Bcl-2 (P10415 whole entry): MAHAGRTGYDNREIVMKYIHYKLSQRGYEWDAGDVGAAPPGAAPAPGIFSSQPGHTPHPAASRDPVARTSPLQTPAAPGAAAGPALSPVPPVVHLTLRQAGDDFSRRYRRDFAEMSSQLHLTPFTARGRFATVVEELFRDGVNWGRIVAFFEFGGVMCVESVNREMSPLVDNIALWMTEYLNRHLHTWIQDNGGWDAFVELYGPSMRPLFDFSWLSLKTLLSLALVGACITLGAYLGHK

As a reminder, the IC50 is the concentration that gives 50% inhibition. `CCc1nc(C(N)=O)c(Nc2ccc(N3CCC(N4CCN(C(=O)C5CCN(c6ccc(S(=O)(=O)NC(=O)c7ccc(N8CCN(CC9=C(c%10ccc(Cl)cc%10)CC(C)(C)CC9)CC8)cc7Oc7cnc8[nH]ccc8c7)cc6[N+](=O)[O-])CC5)CC4)CC3)c(OC)c2)nc1NC1CCOCC1`: the IC50 is 1170 nM with MV4-11 [1], > 10000 nM in assay [2], > 10000 nM with MOLM-14 [3] and > 10000 nM in [4].
One may read the Kd as the constant that tells how readily two partners part at equilibrium. On to `CCc1nc(C(N)=O)c(Nc2ccc(N3CCC(N4CCN(C(=O)CNc5ccc(S(=O)(=O)NC(=O)c6ccc(N7CCN(CC8=C(c9ccc(Cl)cc9)CC(C)(C)CC8)CC7)cc6Oc6cnc7[nH]ccc7c6)cc5[N+](=O)[O-])CC4)CC3)c(OC)c2)nc1NC1CCOCC1`, for which the Kd in assay [5] is 0.91 nM; in [6] it was 205 nM. Further, the IC50 in the assay with MV4-11 [1] is 33.7 nM; in assay [2], 209 nM; in the assay on MOLM-14 [3], 1070 nM; in assay [4], > 10000 nM. Further, in the assay with MV4-11 [7], the viability at 0.2 µM is 30.7%. Also, the Activity with MV4-11 [8] was 25.7%; in the assay on MV4-11 [9] it was 42.1%. For the same compound, the outcome in assay [10] and in [11] was inactive.
Regarding `CCc1nc(C(N)=O)c(Nc2ccc(N3CCN(C(=O)CNc4ccc(S(=O)(=O)NC(=O)c5ccc(N6CCN(CC7=C(c8ccc(Cl)cc8)CC(C)(C)CC7)CC6)cc5Oc5cnc6[nH]ccc6c5)cc4[N+](=O)[O-])CC3)c(OC)c2)nc1NC1CCOCC1`, the Kd is 4.25 nM in [5] and 63 nM in assay [6]. Also, the IC50 with MV4-11 [1] was found to be 54.7 nM; in [2], 162 nM; in the assay with MOLM-14 [3], 265 nM; in assay [4], 1700 nM. The viability at 0.2 µM in the assay with MV4-11 [7] is 52.2%. The figures for the Activity in the assay with MV4-11 [8] and with MV4-11 [9] were 18.6% and 27.9%, respectively. Besides, the result in [10] and in [11] was inactive.
Turning to `CCc1nc(C(N)=O)c(Nc2ccc(N3CCC(N4CCN(C)CC4)CC3)c(OC)c2)nc1NC1CCOCC1` [GILTERITINIB], the IC50 came out at 14.7 nM in the assay with MV4-11 [1]; 53.7 nM in assay [2]; 25.7 nM in the assay with MOLM-14 [3]; 128 nM in assay [4]; 2.6 nM in the assay with MV4-11 [12]; 16.4 nM in the assay on MOLM-14 [13]. Besides, the results for the IC50 in “cells [17]” and in the assay “cells [18]” were 8.7 nM and 63.2 nM, respectively. In addition, in the assay on MV4-11 [14], the viability at 0.2 µM was found to be 0.4%. The Activity is on record as 31.1% with MV4-11 [15] and 66.9% in the assay on MV4-11 [16].
Regarding `CCc1nc(C(N)=O)c(Nc2ccc(N3CCN(C(=O)CCCCCCNc4ccc(S(=O)(=O)NC(=O)c5ccc(N6CCN(CC7=C(c8ccc(Cl)cc8)CC(C)(C)CC7)CC6)cc5Oc5cnc6[nH]ccc6c5)cc4[N+](=O)[O-])CC3)c(OC)c2)nc1NC1CCOCC1`, the half-maximal inhibitory concentration (IC50) in the assay on MV4-11 [1] turned out to be 107 nM; in assay [2], 280 nM; in the assay on MOLM-14 [3], 531 nM; in assay [4] it was 3280 nM.
For `CCc1nc(C(N)=O)c(Nc2ccc(N3CCC(N4CCN(C(=O)CCCCCCNc5ccc(S(=O)(=O)NC(=O)c6ccc(N7CCN(CC8=C(c9ccc(Cl)cc9)CC(C)(C)CC8)CC7)cc6Oc6cnc7[nH]ccc7c6)cc5[N+](=O)[O-])CC4)CC3)c(OC)c2)nc1NC1CCOCC1` the same measures were 94 nM, 907 nM, 3330 nM and > 10000 nM.
For `CCc1nc(C(N)=O)c(Nc2ccc(N3CCN(C(=O)C4CCN(c5ccc(S(=O)(=O)NC(=O)c6ccc(N7CCN(CC8=C(c9ccc(Cl)cc9)CC(C)(C)CC8)CC7)cc6Oc6cnc7[nH]ccc7c6)cc5[N+](=O)[O-])CC4)CC3)c(OC)c2)nc1NC1CCOCC1` the same measures were 968 nM, 3220 nM, > 10000 nM and > 10000 nM.
For the compound `CC1(C)CCC(CN2CCN(c3ccc(C(=O)NS(=O)(=O)c4ccc(NCC5CCOCC5)c([N+](=O)[O-])c4)c(Oc4cnc5[nH]ccc5c4)c3)CC2)=C(c2ccc(Cl)cc2)C1` [VENETOCLAX], the IC50 in [2] is 756 nM; with MOLM-14 [3], 1700 nM; in assay [4], 2010 nM; with MV4-11 [20], 2.6 nM; in assay [21], 8.7 nM; in the assay on MOLM-14 [22], 16.4 nM. Also, in assay [23], the IC50 came to 63.2 nM. Besides, in the assay with MV4-11 [19], the viability at 0.2 µM came out at 0.4%. Further, the Activity is listed as 31.1% in the assay with MV4-11 [24] and 66.9% with MV4-11 [25].
